For one experiment, the target named is T1, NEK1 (Homo sapiens, UniProt Q96PY6).
T1 construct: purchased Ambit KINOMEscan (DiscoverX)
T1 sequence (Q96PY6 1-1258): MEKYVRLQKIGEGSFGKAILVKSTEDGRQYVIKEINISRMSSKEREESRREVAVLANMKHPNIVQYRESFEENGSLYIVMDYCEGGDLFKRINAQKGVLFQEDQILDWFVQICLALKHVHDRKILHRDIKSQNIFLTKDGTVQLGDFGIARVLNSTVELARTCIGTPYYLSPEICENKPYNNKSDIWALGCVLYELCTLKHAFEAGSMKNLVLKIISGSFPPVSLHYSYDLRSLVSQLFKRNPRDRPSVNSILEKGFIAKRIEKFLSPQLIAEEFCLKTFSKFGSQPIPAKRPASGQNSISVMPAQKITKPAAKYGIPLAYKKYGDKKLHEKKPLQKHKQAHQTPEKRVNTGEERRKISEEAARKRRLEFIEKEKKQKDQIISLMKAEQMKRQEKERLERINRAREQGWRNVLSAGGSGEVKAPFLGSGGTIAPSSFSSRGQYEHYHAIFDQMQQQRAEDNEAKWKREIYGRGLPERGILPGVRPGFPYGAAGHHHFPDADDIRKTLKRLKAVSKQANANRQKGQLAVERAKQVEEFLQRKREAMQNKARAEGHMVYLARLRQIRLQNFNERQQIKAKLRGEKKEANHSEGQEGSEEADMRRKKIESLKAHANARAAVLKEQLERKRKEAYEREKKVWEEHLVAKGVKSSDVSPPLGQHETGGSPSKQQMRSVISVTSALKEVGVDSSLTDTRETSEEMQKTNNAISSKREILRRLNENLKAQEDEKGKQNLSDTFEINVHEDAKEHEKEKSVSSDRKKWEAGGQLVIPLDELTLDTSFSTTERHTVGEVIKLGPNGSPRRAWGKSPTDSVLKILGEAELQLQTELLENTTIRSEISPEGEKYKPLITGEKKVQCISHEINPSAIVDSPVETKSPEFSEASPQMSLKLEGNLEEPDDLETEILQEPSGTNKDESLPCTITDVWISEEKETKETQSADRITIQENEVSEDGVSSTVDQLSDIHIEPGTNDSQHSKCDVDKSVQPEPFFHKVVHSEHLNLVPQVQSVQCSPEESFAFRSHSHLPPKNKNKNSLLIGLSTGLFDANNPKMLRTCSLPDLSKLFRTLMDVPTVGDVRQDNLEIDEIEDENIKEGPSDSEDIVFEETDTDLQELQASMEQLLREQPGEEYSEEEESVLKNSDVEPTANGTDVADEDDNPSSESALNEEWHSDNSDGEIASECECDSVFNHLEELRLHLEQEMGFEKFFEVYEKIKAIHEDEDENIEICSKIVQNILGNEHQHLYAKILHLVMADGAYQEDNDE
Kind of experiment: SelectScreen in vitro kinase IC50. Format: biochemical. As to the method: (§1) First, we used Ambit's KINOMEscan™ technology to identify those kinases that are inhibited for substrate binding by the compounds, all assayed at 1 μM. Second, we used Invitrogen's SelectScreen® Biochemical Kinase Profiling Service to determine the in vitro IC50s for the compounds against specific kinases.

Another experiment concerns DLD-1 (K-RAS^G13D/+). Kind of experiment: Cell cycle analysis (propidium iodide FACS). Format: cell-based. The note with it: DLD-1 cells. On the procedure:
(§2) Cell cycle analysis was performed via FACS-based propidium iodide quantification, using standard methods. To measure cell viability, cells were grown in 96-well plates in the presence or absence of drug for 72 hours, fixed with 4% paraformaldehyde, and then stained with Syto60 (Invitrogen). Plates were imaged and quantified using the LiCor Odyssey system (LiCor).

The test system of the next experiment is B cell migration. Further details: method as in PMID 21123826. The note with it: mice ref 15; cited from earlier work.
The target of a further experiment is T2, MAP4K2 (Homo sapiens, UniProt Q12851).
T2 construct: purchased Ambit KINOMEscan (DiscoverX)
T2 sequence (Q12851 1-820): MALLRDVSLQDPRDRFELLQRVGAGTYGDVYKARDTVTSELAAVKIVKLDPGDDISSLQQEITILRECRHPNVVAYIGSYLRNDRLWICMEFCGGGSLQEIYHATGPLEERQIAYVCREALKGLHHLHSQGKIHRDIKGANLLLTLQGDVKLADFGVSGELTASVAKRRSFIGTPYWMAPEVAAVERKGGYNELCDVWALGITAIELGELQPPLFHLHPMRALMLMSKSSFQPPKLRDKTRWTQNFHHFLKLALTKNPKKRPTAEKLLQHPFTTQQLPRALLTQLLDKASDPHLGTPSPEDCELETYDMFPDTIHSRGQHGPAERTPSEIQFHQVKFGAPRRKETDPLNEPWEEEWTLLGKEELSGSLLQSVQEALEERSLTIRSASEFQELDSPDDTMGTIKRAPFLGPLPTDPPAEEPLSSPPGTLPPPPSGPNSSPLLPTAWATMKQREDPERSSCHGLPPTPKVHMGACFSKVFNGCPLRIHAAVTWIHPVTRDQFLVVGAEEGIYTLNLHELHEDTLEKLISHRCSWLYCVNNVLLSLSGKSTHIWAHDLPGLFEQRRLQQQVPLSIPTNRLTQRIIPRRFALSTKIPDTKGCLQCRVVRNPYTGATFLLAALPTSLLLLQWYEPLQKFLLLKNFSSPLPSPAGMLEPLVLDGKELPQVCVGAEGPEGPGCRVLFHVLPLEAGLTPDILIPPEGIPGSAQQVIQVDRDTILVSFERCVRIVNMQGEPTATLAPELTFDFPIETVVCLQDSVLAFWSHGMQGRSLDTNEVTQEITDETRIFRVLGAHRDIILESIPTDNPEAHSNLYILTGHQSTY
Kind of experiment: SelectScreen in vitro kinase IC50. The class given is biochemical. The note with it: Fig. S5. On the procedure: as §1

For experiment [1], the system named is panel of colorectal cancer cell lines. Kind of experiment: Cell viability (Syto60) in a panel of colorectal cancer cell lines. The class given is cell-based. The note with it: 72 hours, 3 cell lines expressing wild-type K-RAS. On the procedure: as §2
Relative cell viability was normalized to an untreated control for each cell line. Error bars represent SEM for 3 independent experiments. […] (PDF) Click here for additional data file.

Results on two compounds are retold here after publication PMC3399817 (PLoS ONE, 2012).

SMILES strings stand for the structures.

In general, IC50 refers to the concentration that gives 50% inhibition.

As to `COc1ccc(-c2cc3nccn3c(Nc3ncccc3C(N)=O)n2)cc1OC.Cl.Cl` [BAY61-3606, 2-[7-(3,4-dimethoxyphenyl)-imidazo [1,2-c]pyrimidin-5-ylamino] nicotinamide dihydrochloride, reference compound], the IC50 on NEK1 came to 159 nM. For the same compound, the apoptosis result with DLD-1 (K-RAS^G13D/+) was “nor did it induce apoptosis”. Moreover, the cell cycle profile result with DLD-1 (K-RAS^G13D/+) (propidium iodide) is given as “did not alter the cell cycle profile”. Also, the B cell migration entry in the experiment on B cell migration is reported as “suppresses”.
As to `COc1ccccc1Nc1nc(-c2ccc(OC)c(OC)c2)cc2nccn12` [BAY derivative 6], the “in vitro kinase activity of MAP4K2, inhibition” value at MAP4K2 was “lost its ability to effectively inhibit the in vitro kinase activity of MAP4K2”. The “cell lines expressing wild-type K-RAS that responded” value in experiment [1] is given as 0/3.
